Experimental data: patent US20260014192A1, “COMPOSITIONS AND USES THEREOF” (Optibiotix Limited, priority 2022, published 2026)

Key:
gut microbiome [1] = assay: pH-controlled anaerobic faecal cultures: organic acid production; type: cell-based; details: FIG. 3C
Protocol: pH-controlled, anaerobic, faecal cultures were carried out to evaluate the impact of each test carbohydrate on gut microbiome composition and activity (organic acid production). The test carbohydrates were as follows: Inulin, Fructooligosaccharides (FOS), Xylooligosaccharides (XOS), gentiooligosaccharides (GeOS) and cellobiose.
(§1) All carbohydrates were tested in parallel, using the same faecal sample from a healthy donor. Fermentations were repeated using the faecal samples of each of 6 donors. Faeces in the absence of test substrate were used as the negative control in each run.

gut microbiome [2] = assay: Non pH-controlled anaerobic faecal cultures: gas production; type: cell-based; details: 6 donors, FIG. 1A
Protocol: Non pH-controlled, anaerobic, faecal cultures were investigated to evaluate the rate of gas production and cumulative gas production over 24 h in the presence of each test substrate.
as §1

## O=C[C@H](O)[C@@H](O)[C@H](O[C@@H]1O[C@H](CO)[C@@H](O)[C@H](O)[C@H]1O)[C@H](O)CO [Cellobiose, cellobiose]
Gut microbiome [1]
  lactate production / accumulation: high levels
Gut microbiome [2]
  rate of gas production: significantly higher compared to all test substrates
